Assay results published in patent US20200291018A1, “TAM KINASE INHIBITORS” (SYROS PHARMACEUTICALS, INC., priority 2017, published 2020).

How the values were obtained:
[1] = molecular target: T1, AXL (Homo sapiens, UniProt P30530); assay: TR-FRET kinase activity assay, AXL; format: biochemical; conditions: ATP at Km, 60 minutes
T1 sequence (P30530 26-894): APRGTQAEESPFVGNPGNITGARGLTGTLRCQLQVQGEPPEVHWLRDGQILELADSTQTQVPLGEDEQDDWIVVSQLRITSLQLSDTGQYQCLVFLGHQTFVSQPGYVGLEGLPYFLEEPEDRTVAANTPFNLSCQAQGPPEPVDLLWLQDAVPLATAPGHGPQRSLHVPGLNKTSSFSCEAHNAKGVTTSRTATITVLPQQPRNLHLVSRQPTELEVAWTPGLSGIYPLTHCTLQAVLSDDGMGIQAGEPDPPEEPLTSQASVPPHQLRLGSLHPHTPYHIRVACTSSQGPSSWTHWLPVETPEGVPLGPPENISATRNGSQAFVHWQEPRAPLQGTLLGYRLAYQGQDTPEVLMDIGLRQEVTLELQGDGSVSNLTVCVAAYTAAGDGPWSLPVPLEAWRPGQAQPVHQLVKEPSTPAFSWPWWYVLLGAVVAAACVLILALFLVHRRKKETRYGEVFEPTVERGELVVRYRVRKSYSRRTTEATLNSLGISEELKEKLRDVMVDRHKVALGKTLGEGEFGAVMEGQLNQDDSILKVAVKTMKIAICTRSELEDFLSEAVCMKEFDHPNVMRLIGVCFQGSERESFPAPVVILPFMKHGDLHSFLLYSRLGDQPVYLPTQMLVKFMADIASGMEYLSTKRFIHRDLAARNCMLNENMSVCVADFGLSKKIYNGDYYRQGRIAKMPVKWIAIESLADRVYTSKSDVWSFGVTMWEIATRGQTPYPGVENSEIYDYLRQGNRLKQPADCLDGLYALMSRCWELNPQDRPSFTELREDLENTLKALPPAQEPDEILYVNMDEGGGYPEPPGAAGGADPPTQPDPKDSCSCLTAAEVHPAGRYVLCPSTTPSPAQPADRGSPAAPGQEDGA
In short: (§1)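 Enzyme, fluorescent-labeled peptide substrate and compound were mixed in 50 mM HEPES pH 7.5, 10 mM MgCl2, 1 mM EGTA, 0.01% Brij 35, 1 mM DTT at RT; ATP at each enzyme's Km started the reaction. After 60 min, EDTA quench and Eu-anti-phosphotyrosine-site antibody (30 min, dark); TR-FRET read, IC50 derived.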

[2] = molecular target: T2, FLT3 (Homo sapiens, UniProt P36888); assay: TR-FRET kinase activity assay, FLT3; format: biochemical; conditions: ATP at Km, 60 minutes
T2 sequence (P36888 27-993): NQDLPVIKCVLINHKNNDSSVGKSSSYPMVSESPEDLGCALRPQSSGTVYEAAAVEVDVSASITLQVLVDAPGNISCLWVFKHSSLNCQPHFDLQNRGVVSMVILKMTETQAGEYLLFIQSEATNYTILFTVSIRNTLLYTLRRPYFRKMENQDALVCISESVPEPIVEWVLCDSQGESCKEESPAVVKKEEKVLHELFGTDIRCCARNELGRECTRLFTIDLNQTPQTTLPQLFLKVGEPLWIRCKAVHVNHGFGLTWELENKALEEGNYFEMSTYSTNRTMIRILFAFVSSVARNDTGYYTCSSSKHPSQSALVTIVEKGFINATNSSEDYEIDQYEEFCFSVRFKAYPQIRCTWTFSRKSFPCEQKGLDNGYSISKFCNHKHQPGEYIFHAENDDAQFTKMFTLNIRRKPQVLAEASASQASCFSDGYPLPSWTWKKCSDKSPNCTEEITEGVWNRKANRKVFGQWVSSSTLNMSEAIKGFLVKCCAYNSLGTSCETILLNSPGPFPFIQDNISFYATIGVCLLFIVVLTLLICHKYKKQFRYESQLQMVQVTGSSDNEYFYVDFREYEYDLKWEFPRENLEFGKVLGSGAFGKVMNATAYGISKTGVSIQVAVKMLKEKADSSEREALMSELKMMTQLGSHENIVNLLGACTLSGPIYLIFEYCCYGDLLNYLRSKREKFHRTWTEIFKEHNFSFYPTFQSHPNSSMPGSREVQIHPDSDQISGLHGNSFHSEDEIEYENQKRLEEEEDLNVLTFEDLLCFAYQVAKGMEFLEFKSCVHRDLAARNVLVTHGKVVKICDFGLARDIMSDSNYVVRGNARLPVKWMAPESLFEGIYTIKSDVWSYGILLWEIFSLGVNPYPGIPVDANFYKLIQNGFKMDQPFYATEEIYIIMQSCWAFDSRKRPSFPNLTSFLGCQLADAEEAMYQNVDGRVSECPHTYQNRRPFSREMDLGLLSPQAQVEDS
In short: as §1

IC50 [1] | IC50 [2] | Structure (SMILES)
1000 to 10000 nM | 1000 to 10000 nM | O[C@H]1CC[C@H](c2cnc(OC3CCNCC3)c3cnc(NC4CCC(F)(F)CC4)nc32)CC1 [Compound 164]
100 to 1000 nM | 100 to 1000 nM | CCCC(C)Nc1ncc2c(NC3CCN(C(=O)C(F)(F)F)CC3)ncc([C@H]3CC[C@H](O)CC3)c2n1 (stereo partly shown) [Compound 165]
100 to 1000 nM | 100 to 1000 nM | CCCC(C)Nc1ncc2c(OC3CCNCC3)ncc([C@H]3CC[C@H](O)CC3)c2n1 (stereo partly shown) [Compound 166]
≤ 100 nM | ≤ 100 nM | CC1CC(Nc2ncc3c(OC4CCNCC4)ncc([C@H]4CC[C@H](O)CC4)c3n2)C1 (stereo partly shown) [Compound 167]
100 to 1000 nM | 100 to 1000 nM | CC1CC(Nc2ncc3c(OC4CCNCC4)ncc([C@H]4CC[C@@H](O)CC4)c3n2)C1 (stereo partly shown) [Compound 168]
1000 to 10000 nM | 1000 to 10000 nM | CCCC(C)Nc1ncc2c(=O)n(CCN(C)C)cc([C@H]3CC[C@H](O)CC3)c2n1 (stereo partly shown) [Compound 169]
100 to 1000 nM | 1000 to 10000 nM | CCCC(C)Nc1ncc2c(OC3CCN(CCC(=O)N(C)C)CC3)ncc([C@H]3CC[C@H](O)CC3)c2n1 (stereo partly shown) [Compound 170]
≤ 100 nM | 100 to 1000 nM | CCC[C@H](C)Nc1ncc2c(OC3CCNCC3)ncc([C@H]3CC[C@H](O)CC3)c2n1 [Compound 171]
100 to 1000 nM | 1000 to 10000 nM | CCCC(C)Nc1ncc2c(OC3CCN(CC(=O)N(C)C)CC3)ncc([C@H]3CC[C@H](O)CC3)c2n1 (stereo partly shown) [Compound 172]
100 to 1000 nM | 1000 to 10000 nM | CCCC(C)Nc1ncc2c(OC3CCN(CCOC)CC3)ncc([C@H]3CC[C@H](O)CC3)c2n1 (stereo partly shown) [Compound 173]
100 to 1000 nM | 1000 to 10000 nM | CCCC(C)Nc1ncc2c(O[C@@H]3C[C@H]4CC[C@@H](C3)O4)ncc([C@H]3CC[C@H](O)CC3)c2n1 (stereo partly shown) [Compound 174]
100 to 1000 nM | 100 to 1000 nM | CCCC(C)Nc1ncc2c(O[C@H]3C[C@H]4CC[C@@H](C3)O4)ncc([C@H]3CC[C@H](O)CC3)c2n1 (stereo partly shown) [Compound 175]
100 to 1000 nM | 100 to 1000 nM | CCCC(C)Nc1ncc2c(O[C@H]3C[C@@H](O)C3)ncc([C@H]3CC[C@H](O)CC3)c2n1 (stereo partly shown) [Compound 176]
1000 to 10000 nM | 1000 to 10000 nM | CCCC(C)Nc1ncc2c(=O)n(CCN3CCOCC3)cc([C@H]3CC[C@H](O)CC3)c2n1 (stereo partly shown) [Compound 177]
100 to 1000 nM | 1000 to 10000 nM | CC(C)C(C)Nc1ncc2c(OC3CCNCC3)ncc([C@H]3CC[C@H](O)CC3)c2n1 (stereo partly shown) [Compound 178]
1000 to 10000 nM | 1000 to 10000 nM | CCCC(C)Nc1ncc2c(N3CCC[C@H](N(C)C)C3)ncc([C@H]3CC[C@H](O)CC3)c2n1 (stereo partly shown) [Compound 180]
1000 to 10000 nM | 1000 to 10000 nM | CCCC(C)Nc1ncc2c(N3CC(N(C)C)C3)ncc([C@H]3CC[C@H](O)CC3)c2n1 (stereo partly shown) [Compound 181]

IC50 [1] | IC50 [2] | Structure (SMILES)
1000 to 10000 nM | 100 to 1000 nM | CCCC(C)Nc1ncc2c(OCCN3CCOCC3)ncc([C@H]3CC[C@H](O)CC3)c2n1 (stereo partly shown) [Compound 182]
100 to 1000 nM | 100 to 1000 nM | O[C@H]1CC[C@H](c2cnc(OC3CCNCC3)c3cnc(NC4CCCCC4)nc32)CC1 [Compound 183]
1000 to 10000 nM | 1000 to 10000 nM | CCCC(C)Nc1ncc2c(OC3CCOCC3)ncc([C@H]3CC[C@@H](N(C)C)CC3)c2n1 (stereo partly shown) [Compound 184]
100 to 1000 nM | 100 to 1000 nM | CCCC(C)Nc1ncc2c(OC3CCOCC3)ncc([C@H]3CC[C@H](N(C)C)CC3)c2n1 (stereo partly shown) [Compound 185]
100 to 1000 nM | 1000 to 10000 nM | CCCC(C)Nc1ncc2c(=O)n(C3CCN(C(C)C)CC3)cc([C@H]3CC[C@H](O)CC3)c2n1 (stereo partly shown) [Compound 186]
100 to 1000 nM | 100 to 1000 nM | CCCC(C)Nc1ncc2c(O[C@H]3C[C@H](O)C3)ncc([C@H]3CC[C@H](O)CC3)c2n1 (stereo partly shown) [Compound 187]
1000 to 10000 nM | 1000 to 10000 nM | CCCC(C)Nc1ncc2c(N3CCC[C@@H](N(C)C)C3)ncc([C@H]3CC[C@H](O)CC3)c2n1 (stereo partly shown) [Compound 188]
1000 to 10000 nM | 1000 to 10000 nM | C[C@H](Nc1ncc2c(OC3CCNCC3)ncc([C@H]3CC[C@H](O)CC3)c2n1)c1ccccc1 [Compound 189]
100 to 1000 nM | 1000 to 10000 nM | CCC[C@H](C)Nc1ncc2c(OC3CCN(C)CC3)ncc([C@H]3CC[C@H](O)CC3)c2n1 [Compound 190]
1000 to 10000 nM | 1000 to 10000 nM | CCCC(C)Nc1ncc2c(OCCN(C)C)ncc([C@H]3CC[C@H](O)CC3)c2n1 (stereo partly shown) [Compound 191]
1000 to 10000 nM | 1000 to 10000 nM | CCCC(C)Nc1ncc2c(=O)n(C3CCN(C(=O)CN(C)C)CC3)cc([C@H]3CC[C@H](O)CC3)c2n1 (stereo partly shown) [Compound 192]
100 to 1000 nM | 1000 to 10000 nM | CCCC(C)Nc1ncc2c(=O)n(CC3CCN(C)CC3)cc([C@H]3CC[C@H](O)CC3)c2n1 (stereo partly shown) [Compound 193]
100 to 1000 nM | 100 to 1000 nM | C[C@@H](CC(F)(F)F)Nc1ncc2c(O[C@H]3C[C@](C)(O)C3)ncc([C@H]3CC[C@H](O)CC3)c2n1 [Compound 430]
1000 to 10000 nM | 1000 to 10000 nM | COC[C@H](C)Nc1ncc2c(O[C@H]3C[C@@H](O)C3(C)C)ncc([C@H]3CC[C@H](O)CC3)c2n1 [Compound 431]
≤ 100 nM | 100 to 1000 nM | CC(=O)N[C@H]1C[C@@H](Oc2ncc([C@H]3CC[C@H](O)CC3)c3nc(N[C@@H](C)CC(F)(F)F)ncc23)C1 [Compound 433]
100 to 1000 nM | 100 to 1000 nM | CO[C@H]1C[C@@H](Oc2ncc([C@H]3CC[C@H](O)CC3)c3nc(N[C@@H](C)CC(F)(F)F)ncc23)C1 [Compound 434]
≤ 100 nM | ≤ 100 nM | COC(=O)N[C@H]1C[C@@H](Oc2ncc([C@H]3CC[C@H](O)CC3)c3nc(N[C@@H](C)CC(F)(F)F)ncc23)C1 [Compound 435]

Structure (SMILES) | IC50 [1] | IC50 [2]
CCCC(C)Nc1ncc2c(N(C)C3CCNCC3)ncc([C@H]3CC[C@H](O)CC3)c2n1 (stereo partly shown) [Compound 179] | 100 to 1000 nM | 1000 to 10000 nM
COCCN1[C@@H]2CC[C@H]1C[C@H](Oc1ncc([C@H]3CC[C@H](O)CC3)c3nc(N[C@@H](C)CC(F)(F)F)ncc13)C2 [Compound 432] | ≤ 100 nM | 100 to 1000 nM
CC(=O)N1[C@@H]2CC[C@H]1C[C@H](Oc1ncc([C@H]3CC[C@H](O)CC3)c3nc(N[C@@H](C)CC(F)(F)F)ncc13)C2 [Compound 436] | ≤ 100 nM | 100 to 1000 nM
C[C@@H](CC(F)(F)F)Nc1ncc2c(O[C@@H]3C[C@H]4CC[C@@H](C3)N4C3COC3)ncc([C@H]3CC[C@H](O)CC3)c2n1 [Compound 437] | ≤ 100 nM | 100 to 1000 nM
